From US11225474B2, “Crystalline salt forms of 3-(1,2,4-triazolo[4,3-a]pyridine-3-ylethynyl)-4-methyl-N-(4-((4-methylpiperazin-1-yl)methyl)-3-trifluoromethylphenyl)benzamide for medical application” (priority 2016, dated 2022)

How the values were obtained:
[1] = tested on: Guinea pigs and mice; experiment: Allergenic properties (anaphylaxis, ITH, DTH and related models); assay type: in vivo, Guinea pig; mice; conditions: all models studied
Text: To identify allergenic properties, the following methods were used: evaluation of anaphylactogenic activity using Guinea pig general systemic anaphylaxis and active cutaneous anaphylaxis models; evaluation of immediate-type hypersensitivity (ITH) reaction and delayed-type hypersensitivity (DTH) reaction in Guinea pigs following epicutaneous and conjunctival drug application; evaluation of DTH reaction in mice; study of the inflammation reaction to A concanavalin in mice; measuring of eosinophil blood count, evaluation of the effect on phagocyte neutrophil activity (Nitro Blue-Tetrazolium Test (NBT)), and leukocyte specific lysis reaction scenario using a Guinea pig model with subcutaneous administration of the drug.

[2] = tested on: EL4; experiment: Cytotoxicity, lymphoma line; assay type: cell-based, human
[3] = Hygroscopicity by gravimetric moisture absorption; assay type: physicochemical; conditions: relative air humidity of 90%
Text: Samples were also studied using the following methods: polarization microscopy (Leica DMRB Polarized Microscope, resolution of 1600×1200)—to confirm crystallinity, ion chromatography—to confirm anion and cation stoichiometric proportion, differential scanning calorimetry (DSC) and thermogravimetric analysis (TGA)—to confirm composition and study of temperature stability of samples; ^1H NMR (500 MHz Bruker AVANCE 500.13 MHz, solvent DMSO-d6)—to confirm structure, assess purity and content of organic solvents; gravimetric moisture absorption—to assess hygroscopicity. DSC was carried out using Mettler 822e DSC apparatus. The measuring system was calibrated according to ISO 11357-1 standard based on standard substances phase changes (C6H12; Hg; benzoic acid; Ga; KNO3; In; Sn; Bi; CsCl; purity grade 99.99%). Temperature calibration regular error (determined based on In) is 0.1°. Samples were tested in standard aluminum cells in the artificial air flow at a temperature range of 30-300° C. with heating speed of 10°/min. TG measurements were taken using Mettler 851e SDTA/TGA TG analyzer. The apparatus was calibrated using standard substances melting points (Ag; Al; Bi; In; Sn; purity grade of 99.99%). Weighing error is NMT 0.1% (determined using CaC2O4·2H2O standard). The test was carried out in a standard open aluminum container in the artificial air flow at a temperature range of 30-150° C. with heating speed of 10°/min. To avoid dehydration, the material was not exposed to mechanical treatment before taking measurements.

[4] = tested on: marrow cells obtained from C57BL/6N line mice with induced acute leukemia; experiment: Acute leukemia mouse model; assay type: in vivo; conditions: oral, 40 mg/kg (34 mg/kg as free base), 2 weeks
Procedure: To induce the pathology, marrow cells obtained from C57BL/6N line mice with induced acute leukemia were used. Cells were injected to the tail vein of an animal following administration of a sub lethal dose of radiation. Therapy was initiated on the 5th day after pathology induction and continued for 2 weeks.

[5] = tested on: K562 line cells; experiment: Xenograft chronic leukemia model; assay type: in vivo, thymus-deprived mice; conditions: oral, 14 days, follow-up 240 days
Text: The therapy was started after the size of the tumor had reached 500 mm^3, therapy duration was 14 days, the follow-up period was 240 days.

[6] = physchem; conditions: deionized water, thermodynamic from solid, Equilibrium solubility, HPLC analysis
[7] = tested on: K562; experiment: Cytotoxicity, Ph+ CML model cell line; assay type: cell-based; conditions: Homo sapiens, read-out: IC50 (toxicity)
[8] = target: EPHA2 (Homo sapiens, UniProt P29317); experiment: Human kinase panel at 100 nM; assay type: biochemical
[9] = physchem; assay type: physicochemical
[10] = target: potassium hERG channel (Homo sapiens, UniProt Q12809); experiment: Effect on the ion hERG channel; assay type: cell-based; conditions: tested at 0.1-10 μM, mesylate salt
[11] = tested on: BaF3/BCR-ABL E255K; experiment: Toxicity to transduced BaF3 model tumor cell line; assay type: cell-based, murine; conditions: Mus musculus

EPHA2, sequence (P29317 24-976): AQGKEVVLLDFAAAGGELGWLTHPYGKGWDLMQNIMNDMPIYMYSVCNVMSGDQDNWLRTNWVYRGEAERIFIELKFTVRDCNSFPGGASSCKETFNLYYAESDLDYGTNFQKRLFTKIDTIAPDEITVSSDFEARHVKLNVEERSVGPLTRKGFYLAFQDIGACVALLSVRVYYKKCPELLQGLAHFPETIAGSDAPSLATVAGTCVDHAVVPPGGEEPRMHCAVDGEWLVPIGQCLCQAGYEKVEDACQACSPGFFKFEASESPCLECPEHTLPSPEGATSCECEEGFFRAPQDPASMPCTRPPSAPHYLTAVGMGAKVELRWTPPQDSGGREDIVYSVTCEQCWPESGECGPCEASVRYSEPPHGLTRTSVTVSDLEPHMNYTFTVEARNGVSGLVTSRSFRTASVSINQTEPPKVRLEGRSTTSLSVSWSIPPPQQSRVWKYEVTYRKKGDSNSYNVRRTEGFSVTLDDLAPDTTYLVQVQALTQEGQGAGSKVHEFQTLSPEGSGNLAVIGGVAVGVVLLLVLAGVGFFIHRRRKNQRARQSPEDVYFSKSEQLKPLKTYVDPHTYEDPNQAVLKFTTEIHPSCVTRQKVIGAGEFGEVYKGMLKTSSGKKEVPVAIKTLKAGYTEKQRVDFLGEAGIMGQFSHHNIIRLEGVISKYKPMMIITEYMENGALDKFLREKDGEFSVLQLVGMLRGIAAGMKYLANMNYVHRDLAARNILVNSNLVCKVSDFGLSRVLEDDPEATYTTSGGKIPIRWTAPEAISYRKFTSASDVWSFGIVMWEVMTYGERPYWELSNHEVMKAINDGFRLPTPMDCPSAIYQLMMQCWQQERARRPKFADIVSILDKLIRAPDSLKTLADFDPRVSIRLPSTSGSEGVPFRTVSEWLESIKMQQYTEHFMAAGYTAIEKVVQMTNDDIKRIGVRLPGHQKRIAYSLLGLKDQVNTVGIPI
potassium hERG channel, sequence (Q12809 whole entry): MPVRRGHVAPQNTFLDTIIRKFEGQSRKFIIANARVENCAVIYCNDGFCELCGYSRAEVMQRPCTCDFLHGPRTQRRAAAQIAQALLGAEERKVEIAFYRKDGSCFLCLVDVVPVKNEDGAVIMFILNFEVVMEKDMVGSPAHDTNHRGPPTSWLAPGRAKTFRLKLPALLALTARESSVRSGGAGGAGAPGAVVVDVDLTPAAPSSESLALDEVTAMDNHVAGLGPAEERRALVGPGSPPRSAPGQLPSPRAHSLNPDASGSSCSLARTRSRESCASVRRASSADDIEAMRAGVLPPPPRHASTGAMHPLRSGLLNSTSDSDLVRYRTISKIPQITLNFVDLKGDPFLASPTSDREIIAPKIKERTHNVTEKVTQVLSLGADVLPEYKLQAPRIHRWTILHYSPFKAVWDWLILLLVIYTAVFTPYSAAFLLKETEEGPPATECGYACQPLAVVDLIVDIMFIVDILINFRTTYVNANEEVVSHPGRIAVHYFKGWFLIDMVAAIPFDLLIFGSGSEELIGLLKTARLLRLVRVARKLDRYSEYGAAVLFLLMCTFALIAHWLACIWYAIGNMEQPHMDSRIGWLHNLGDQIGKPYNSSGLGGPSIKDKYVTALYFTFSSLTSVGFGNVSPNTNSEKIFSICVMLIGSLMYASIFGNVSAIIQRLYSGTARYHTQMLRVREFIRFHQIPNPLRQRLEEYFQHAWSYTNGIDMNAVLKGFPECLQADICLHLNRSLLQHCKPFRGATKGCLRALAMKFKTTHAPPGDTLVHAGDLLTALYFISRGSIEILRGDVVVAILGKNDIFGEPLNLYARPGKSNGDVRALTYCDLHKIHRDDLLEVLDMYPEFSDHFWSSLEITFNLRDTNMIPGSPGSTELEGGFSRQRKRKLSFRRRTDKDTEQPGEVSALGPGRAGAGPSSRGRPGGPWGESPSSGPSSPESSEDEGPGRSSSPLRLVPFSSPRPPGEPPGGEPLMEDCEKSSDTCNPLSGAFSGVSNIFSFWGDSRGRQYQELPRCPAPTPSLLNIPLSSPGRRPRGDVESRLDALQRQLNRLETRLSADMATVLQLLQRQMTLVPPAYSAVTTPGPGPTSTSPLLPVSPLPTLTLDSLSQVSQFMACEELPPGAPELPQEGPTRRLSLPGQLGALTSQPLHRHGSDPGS

In the case of `CS(=O)(=O)O.Cc1ccc(C(=O)Nc2ccc(CN3CCN(C)CC3)c(C(F)(F)F)c2)cc1C#Cc1nnc2ccccn12` [methanesulfonic acid salt, 3-(1,2,4-triazolo[4,3-a]pyridine-3-ylethynyl)-4-methyl-N-(4-((4-methylpiperazin-1-yl)methyl)-3-trifluoromethylphenyl)benzamide mono methanesulfonic acid salt], the allergenic activity [1] is reported as “did not display any detectable allergenic activity”, the cytotoxicity [2] is reported as “showed cytotoxicity” and the “water absorbed (hygroscopicity)” value [3] is reported as “less than two mass percent of water”. The “increase of average lives compared to the control group” value [4] was “more than 25%”, the “effect on the tumor size” value ([5]; 25 mg/kg (21 as free base) per day) was “decrease of the tumor size to an immeasurable size with subsequent proliferation after the 35th day of follow-up” and the “effect on the tumor size” value ([5]; 40 mg/kg (34 as free base) per day) was “elimination of the tumor without relapse during all 240 days of follow-up in all mice”. The solubility thermodynamic [6] was greater than 100 mg/mL, the IC50 [7] was 8 nM and the inhibition at 0.1 µM [8] was greater than 50%. It also gave an Apparent solubility [9] greater than 46 mg/mL, a solubility ([9]; deionized water, RT, read-out: Apparent solubility) greater than 46 mg/mL and an IC50 [10] of 7800 nM. For the same compound, the IC50 [11] was 25 nM.
